In patent US4871740A, “Glycyrrhetic acid derivatives and use thereof” (Sanwa Kagaku Kenkyusho Co., Ltd., priority 1986, dated 1989):
Where a name gives a salt, the structure may show the parent alone.

Columns and labels:
stress ulcer in rats = experiment: Action to stress ulcer in rats (restraint and water immersion); format: in vivo, Male Wister rats; conditions: Rattus norvegicus, po, 30 minutes before restraint, inhibition ratio, read-out: Ulcer Index (%)
Protocol: (Action to stress ulcer in rats)
Male Wister rats weighing about 180 g (age: 6 weeks) were used for this experiment.
Ten rats in each group were deprived of food for 24 hours before the experiment. They were immobilized in a restraint cage and immersed for 7 hours to the height of the xiphoid in a water bath kept at 23±1°C. After inflation with 10 ml of 1% formalin, the isolated stomach was opened along the greater curvature. The ulcer index (UI) was determined as the sum of the length (mm) of each erosion per rat. Each of the compounds to be tested was suspended in 5% gum arabic solution and given orally 30 minutes before restraint. Control animals received the same solution without any drug or the test compound.
(§1) Inhibition ratio is expressed as follows. [formula]

gastric necrosis in rats = experiment: Action to gastric necrosis in rats (absolute ethanol); format: in vivo, Male Sprague-Dewley rats; conditions: po, 1 hour before absolute ethanol, inhibition ratio
Protocol: (Action to gastric necrosis in rats)
Male Sprague-Dewley rats weighing about 250 g were used for this experiment.
Ten rats in each group were deprived of food for 24 hours before the experiment. Each of the compounds to be tested was suspended in 5% gum arabic solution and given orally to the test animal. After 1 hours from the administration of the compound. 1 ml of absolute ethanol was administered orally and the animals were killed 1 hour later from the ethanol administration. After inflation with 10 ml of 1% formalin, the isolated stomach was opened along the greater curvature. The ulcer index (UI) was determined as the sum of the length (mm) of each erosion per rat. […]. Control animals received the same solution without any drug or the test compound.
as §1

SMILES	inhibition in vivo at 12.5 mg/kg (stress ulcer in rats) [%]	inhibition in vivo at 25 mg/kg (stress ulcer in rats) [%]	inhibition in vivo at 50 mg/kg (stress ulcer in rats) [%]	inhibition in vivo at 100 mg/kg (stress ulcer in rats) [%]	Ulcer Index (%) (gastric necrosis in rats; 25 mg/kg)	Ulcer Index (%) (gastric necrosis in rats; 50 mg/kg)	Ulcer Index (%) (gastric necrosis in rats; 100 mg/kg)
CC(C)=CCCC(C)=CCCC(C)=CCN1CCN(C(=O)[C@@]2(C)CC[C@]3(C)CC[C@]4(C)C(=CC[C@@H]5[C@@]6(C)CC[C@H](OC(=O)/C=C\C(=O)O)C(C)(C)[C@@H]6CC[C@]54C)[C@@H]3C2)CC1 [Compound 4g]	11.7	22.5	21.6	–	–	–	–
CC1(C)[C@@H](OCCC(=O)O)CC[C@]2(C)[C@H]3CC=C4[C@@H]5C[C@@](C)(C(=O)O)CC[C@]5(C)CC[C@@]4(C)[C@]3(C)CC[C@@H]12 [Compound 9, 3β-(2-Carboxyethoxy)-18β-olean-12-en-30-oic acid disodium salt]	–	-0.7	11.8	26.1	–	–	–
CC1(C)[C@@H](OCC(=O)O)CC[C@]2(C)[C@H]3CC=C4[C@@H]5C[C@@](C)(C(=O)O)CC[C@]5(C)CC[C@@]4(C)[C@]3(C)CC[C@@H]12 [Compound 6, 3β-(carboxymethoxy)-18β-olean-12-en-30-oic acid disodium salt]	–	7.2	42.5	59.8	–	–	–
CC(C)=CCCC(C)=CCCC(C)=CCCC(C)=CCCC(C)=CCCC(C)=CCCC(C)=CCCC(C)=CCCC(C)=CCCC(C)=CCSCCNC(=O)C1(C)CCC2(C)CCC3(C)C(=CCC4C5(C)CCC(OC(=O)C=CC(=O)O)C(C)(C)C5CCC43C)C2C1 (stereo not shown) [Compound 4e]	50	44.7	53.5	60.5	21.3	-9.5	-34.7
CC(C)=CCCC(C)=CCCC(C)=CCCC(C)=CCCC(C)=CCCC(C)=CCCC(C)=CCCC(C)=CCCC(C)=CCSCCNC(=O)C1(C)CCC2(C)CCC3(C)C(=CCC4C5(C)CCC(OC(=O)C=CC(=O)O)C(C)(C)C5CCC43C)C2C1 (stereo not shown) [Compound 4d]	33.9	55.4	42.1	56.2	31.7	20.6	39.2
COc1ccccc1N1CCN(C(=O)[C@@]2(C)CC[C@]3(C)CC[C@]4(C)C(=CC[C@@H]5[C@@]6(C)CC[C@H](O)C(C)(C)[C@@H]6CC[C@]54C)[C@@H]3C2)CC1 [Compound 2i, 1-(3β-hydroxy-18β-olean-12-en-30-oyl)-4-(o-methoxyphenyl)piperazine]	–	-18	4.9	46.4	–	–	–
CC(C)=CCCC(C)=CCCC(C)=CCCC(C)=CCSCCNC(=O)[C@@]1(C)CC[C@]2(C)CC[C@]3(C)C(=CC[C@@H]4[C@@]5(C)CC[C@H](OC(=O)/C=C\C(=O)O)C(C)(C)[C@@H]5CC[C@]43C)[C@@H]2C1 [Compound 4c]	33.3	30.5	46.8	61	43.3	66.1	48.9
CC(=CCSCCNC(=O)[C@@]1(C)CC[C@]2(C)CC[C@]3(C)C(=CC[C@@H]4[C@@]5(C)CC[C@H](OC(=O)/C=C\C(=O)O)C(C)(C)[C@@H]5CC[C@]43C)[C@@H]2C1)CCCC(C)CCCC(C)CCCC(C)C (stereo partly shown) [Compound 4f]	–	16.5	4.3	34.5	–	–	–
COc1ccccc1N1CCN(C(=O)[C@@]2(C)CC[C@]3(C)CC[C@]4(C)C(=CC[C@@H]5[C@@]6(C)CC[C@H](OC(=O)/C=C\C(=O)O)C(C)(C)[C@@H]6CC[C@]54C)[C@@H]3C2)CC1 [Compound 4i]	–	24.4	61.4	76.5	–	–	–
CC(C)=CCCC(C)=CCCC(C)=CCCC(C)=CCCC(C)=CCCC(C)=CCCC(C)=CCCC(C)=CCCC(C)=CCCC(C)=CCSCCNC(=O)C1(C)CCC2(C)CCC3(C)C(=CC(=O)C4C5(C)CCC(OC(=O)C=CC(=O)O)C(C)(C)C5CCC43C)C2C1 (stereo not shown) [Compound 4k]	48.5	45.5	43.6	56.4	58.7	10.9	14.3
CC(C)=CCCC(C)=CCCC(C)=CCOC(=O)[C@@]1(C)CC[C@]2(C)CC[C@]3(C)C(=CC[C@@H]4[C@@]5(C)CC[C@H](OC(=O)/C=C\C(=O)O)C(C)(C)[C@@H]5CC[C@]43C)[C@@H]2C1 [Compound 4h]	8	6.1	35.7	–	–	–	–
COc1ccccc1N1CCN(C(=O)[C@@]2(C)CC[C@]3(C)CC[C@]4(C)C(=CC(=O)[C@@H]5[C@@]6(C)CC[C@H](OC(=O)/C=C\C(=O)O)C(C)(C)[C@@H]6CC[C@]54C)[C@@H]3C2)CC1 [Compound 4l]	6.3	25.9	31.7	–	–	–	–
CC(C)=CCCC(C)=CCSCCNC(=O)[C@@]1(C)CC[C@]2(C)CC[C@]3(C)C(=CC[C@@H]4[C@@]5(C)CC[C@H](OC(=O)/C=C\C(=O)O)C(C)(C)[C@@H]5CC[C@]43C)[C@@H]2C1 [Compound 4a, N-[2-(3,7-Dimethyl-2,6-octadien-1-ylthio)ethyl]-3β-(3-carboxy-cis-propenoyloxy)-18β-olean-12-en-30-amide sodium salt]	–	21.1	58.2	73.1	–	–	–
CC(C)=CCCC(C)=CCCC(C)=CCSCCNC(=O)[C@@]1(C)CC[C@]2(C)CC[C@]3(C)C(=CC[C@@H]4[C@@]5(C)CC[C@H](OC(=O)/C=C\C(=O)O)C(C)(C)[C@@H]5CC[C@]43C)[C@@H]2C1 [Compound 4b]	–	51	62.6	60.5	–	–	–
COc1ccccc1N1CCN(C(=O)[C@@]2(C)CC[C@]3(C)CC[C@]4(C)C(=CC[C@@H]5[C@@]6(C)CC[C@H](OC(=O)CCC(=O)O)C(C)(C)[C@@H]6CC[C@]54C)[C@@H]3C2)CC1 [Compound 4m, sodium salt]	–	9.5	26.5	23.2	–	–	–
